Experimental data reported in ChEMBL document CHEMBL1138747, “Synthesis and structure--activity relationship in a class of indolebutylpiperazines as dual 5-HT(1A) receptor agonists and serotonin reuptake inhibitors” (J Med Chem, 2004).

What was measured:
[1] = Inhibition of histamine H2 receptor
[2] = target: T1, Adrenergic receptor alpha-2 (Homo sapiens, UniProt P08913+P18825+P18089); experiment: Inhibition of alpha-2-adrenergic receptor; format: protein assay
T1 sequence (P08913 whole entry): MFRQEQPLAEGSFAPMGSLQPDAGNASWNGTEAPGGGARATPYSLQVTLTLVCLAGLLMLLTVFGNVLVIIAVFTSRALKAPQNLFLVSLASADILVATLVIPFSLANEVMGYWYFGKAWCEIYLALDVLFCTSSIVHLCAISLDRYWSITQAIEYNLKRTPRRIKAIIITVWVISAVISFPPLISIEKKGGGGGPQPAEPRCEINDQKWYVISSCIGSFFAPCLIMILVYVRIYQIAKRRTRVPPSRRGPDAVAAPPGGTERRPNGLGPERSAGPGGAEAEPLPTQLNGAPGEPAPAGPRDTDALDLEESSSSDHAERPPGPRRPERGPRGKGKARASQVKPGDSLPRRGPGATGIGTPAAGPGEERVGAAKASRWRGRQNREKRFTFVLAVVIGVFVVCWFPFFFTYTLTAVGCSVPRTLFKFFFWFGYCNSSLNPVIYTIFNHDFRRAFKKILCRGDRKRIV
T1 sequence (P18825 whole entry): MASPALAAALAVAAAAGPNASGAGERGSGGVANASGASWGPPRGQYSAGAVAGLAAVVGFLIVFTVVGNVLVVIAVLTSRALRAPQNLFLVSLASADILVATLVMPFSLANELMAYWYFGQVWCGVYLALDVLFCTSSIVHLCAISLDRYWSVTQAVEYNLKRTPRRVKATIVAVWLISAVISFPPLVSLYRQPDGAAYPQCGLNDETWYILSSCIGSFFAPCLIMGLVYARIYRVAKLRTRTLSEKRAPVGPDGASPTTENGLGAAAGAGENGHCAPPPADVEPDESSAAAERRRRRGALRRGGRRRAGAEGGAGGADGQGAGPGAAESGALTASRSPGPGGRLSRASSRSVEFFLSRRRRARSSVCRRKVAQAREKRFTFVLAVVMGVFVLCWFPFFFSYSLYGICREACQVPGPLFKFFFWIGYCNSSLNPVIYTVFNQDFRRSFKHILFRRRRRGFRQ
T1 sequence (P18089 whole entry): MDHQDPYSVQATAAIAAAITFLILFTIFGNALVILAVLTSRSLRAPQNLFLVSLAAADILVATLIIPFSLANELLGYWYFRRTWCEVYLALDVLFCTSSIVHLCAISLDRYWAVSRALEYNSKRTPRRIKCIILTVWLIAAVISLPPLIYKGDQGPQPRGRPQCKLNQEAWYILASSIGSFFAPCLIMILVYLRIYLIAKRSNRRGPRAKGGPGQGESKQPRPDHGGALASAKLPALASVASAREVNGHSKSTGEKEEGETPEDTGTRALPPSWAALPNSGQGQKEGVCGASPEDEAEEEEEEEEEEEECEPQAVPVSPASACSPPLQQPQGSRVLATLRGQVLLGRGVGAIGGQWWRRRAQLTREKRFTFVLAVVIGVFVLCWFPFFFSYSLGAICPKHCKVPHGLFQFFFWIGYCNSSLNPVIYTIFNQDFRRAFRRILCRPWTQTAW

[3] = target: T2, Adrenergic receptor alpha-1 (Homo sapiens, UniProt P35348+P25100+P35368); experiment: Inhibition of alpha-1-adrenergic receptor; format: protein assay
T2 sequence (P35348 whole entry): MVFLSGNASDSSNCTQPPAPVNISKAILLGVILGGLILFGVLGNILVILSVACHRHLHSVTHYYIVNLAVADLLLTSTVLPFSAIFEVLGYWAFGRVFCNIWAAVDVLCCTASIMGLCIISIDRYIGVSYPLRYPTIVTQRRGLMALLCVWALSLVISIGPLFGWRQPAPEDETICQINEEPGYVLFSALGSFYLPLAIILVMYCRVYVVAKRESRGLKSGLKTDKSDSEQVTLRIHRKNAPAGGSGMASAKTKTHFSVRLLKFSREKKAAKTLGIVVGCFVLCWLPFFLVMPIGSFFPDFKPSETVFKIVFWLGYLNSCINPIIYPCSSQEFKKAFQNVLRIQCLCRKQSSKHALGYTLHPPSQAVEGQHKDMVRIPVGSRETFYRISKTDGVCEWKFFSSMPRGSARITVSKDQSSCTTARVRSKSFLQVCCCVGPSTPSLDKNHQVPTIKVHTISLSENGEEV
T2 sequence (P25100 whole entry): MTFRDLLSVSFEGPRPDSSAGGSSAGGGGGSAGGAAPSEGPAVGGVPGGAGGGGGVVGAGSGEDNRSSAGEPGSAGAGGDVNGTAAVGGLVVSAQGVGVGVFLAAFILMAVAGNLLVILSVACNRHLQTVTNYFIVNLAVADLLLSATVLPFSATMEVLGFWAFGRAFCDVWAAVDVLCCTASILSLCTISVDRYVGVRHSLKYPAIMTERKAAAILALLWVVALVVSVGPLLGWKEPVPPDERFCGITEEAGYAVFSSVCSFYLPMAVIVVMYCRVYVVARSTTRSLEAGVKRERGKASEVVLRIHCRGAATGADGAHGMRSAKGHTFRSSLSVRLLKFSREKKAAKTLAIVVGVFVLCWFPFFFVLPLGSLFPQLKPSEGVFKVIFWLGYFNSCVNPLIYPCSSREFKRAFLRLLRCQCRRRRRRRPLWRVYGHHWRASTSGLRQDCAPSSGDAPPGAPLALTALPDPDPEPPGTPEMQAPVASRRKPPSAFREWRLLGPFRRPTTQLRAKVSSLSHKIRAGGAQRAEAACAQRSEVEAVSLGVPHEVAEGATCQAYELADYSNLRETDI
T2 sequence (P35368 whole entry): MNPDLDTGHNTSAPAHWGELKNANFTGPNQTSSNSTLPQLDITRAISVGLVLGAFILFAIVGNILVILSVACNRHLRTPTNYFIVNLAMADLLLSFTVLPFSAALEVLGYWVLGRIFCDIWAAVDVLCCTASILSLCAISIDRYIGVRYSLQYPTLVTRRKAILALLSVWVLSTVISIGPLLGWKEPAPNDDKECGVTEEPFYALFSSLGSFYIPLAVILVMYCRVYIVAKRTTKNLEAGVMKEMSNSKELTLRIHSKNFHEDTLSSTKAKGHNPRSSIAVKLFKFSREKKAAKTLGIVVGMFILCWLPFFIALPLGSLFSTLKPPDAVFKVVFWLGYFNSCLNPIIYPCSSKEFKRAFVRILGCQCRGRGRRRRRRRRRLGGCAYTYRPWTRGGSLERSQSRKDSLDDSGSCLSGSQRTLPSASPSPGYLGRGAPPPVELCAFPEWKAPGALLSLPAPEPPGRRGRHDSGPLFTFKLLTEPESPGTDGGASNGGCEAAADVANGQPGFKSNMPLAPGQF

[4] = target: 5-hydroxytryptamine receptor 7 (Rattus norvegicus, UniProt P32305); experiment: Inhibition of rat hydroxytryptamine 7 receptor
Chain of 5-hydroxytryptamine receptor 7 (P32305 whole entry): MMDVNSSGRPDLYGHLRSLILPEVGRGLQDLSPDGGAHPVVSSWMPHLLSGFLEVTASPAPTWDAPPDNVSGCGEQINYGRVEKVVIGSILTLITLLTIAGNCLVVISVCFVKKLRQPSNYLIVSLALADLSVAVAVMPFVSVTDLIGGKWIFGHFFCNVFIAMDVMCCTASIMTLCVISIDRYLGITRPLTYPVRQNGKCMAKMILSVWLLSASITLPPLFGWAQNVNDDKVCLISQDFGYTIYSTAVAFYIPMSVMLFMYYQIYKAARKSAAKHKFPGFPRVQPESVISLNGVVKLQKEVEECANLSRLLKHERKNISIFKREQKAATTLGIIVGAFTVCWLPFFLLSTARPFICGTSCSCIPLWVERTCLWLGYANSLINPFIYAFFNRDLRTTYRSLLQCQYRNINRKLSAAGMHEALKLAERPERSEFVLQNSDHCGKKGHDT

[5] = target: 5-hydroxytryptamine receptor 4 (Rattus norvegicus, UniProt Q62758); experiment: Inhibition of rat hydroxytryptamine 4 receptor
Chain of 5-hydroxytryptamine receptor 4 (Q62758 whole entry): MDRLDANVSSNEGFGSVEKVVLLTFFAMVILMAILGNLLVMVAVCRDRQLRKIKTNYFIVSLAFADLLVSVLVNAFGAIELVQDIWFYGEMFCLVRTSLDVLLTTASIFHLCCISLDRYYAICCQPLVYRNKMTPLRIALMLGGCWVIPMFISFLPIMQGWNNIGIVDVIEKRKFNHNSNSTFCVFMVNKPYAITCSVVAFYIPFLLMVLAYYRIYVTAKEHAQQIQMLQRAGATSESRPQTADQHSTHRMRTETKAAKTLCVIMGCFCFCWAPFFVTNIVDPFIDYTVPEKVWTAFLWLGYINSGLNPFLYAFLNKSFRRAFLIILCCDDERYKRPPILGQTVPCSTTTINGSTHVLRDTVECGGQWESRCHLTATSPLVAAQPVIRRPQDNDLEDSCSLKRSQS

[6] = target: 5-hydroxytryptamine receptor 2A (Rattus norvegicus, UniProt P14842); experiment: Inhibition of rat hydroxytryptamine 2A receptor
Chain of 5-hydroxytryptamine receptor 2A (P14842 whole entry): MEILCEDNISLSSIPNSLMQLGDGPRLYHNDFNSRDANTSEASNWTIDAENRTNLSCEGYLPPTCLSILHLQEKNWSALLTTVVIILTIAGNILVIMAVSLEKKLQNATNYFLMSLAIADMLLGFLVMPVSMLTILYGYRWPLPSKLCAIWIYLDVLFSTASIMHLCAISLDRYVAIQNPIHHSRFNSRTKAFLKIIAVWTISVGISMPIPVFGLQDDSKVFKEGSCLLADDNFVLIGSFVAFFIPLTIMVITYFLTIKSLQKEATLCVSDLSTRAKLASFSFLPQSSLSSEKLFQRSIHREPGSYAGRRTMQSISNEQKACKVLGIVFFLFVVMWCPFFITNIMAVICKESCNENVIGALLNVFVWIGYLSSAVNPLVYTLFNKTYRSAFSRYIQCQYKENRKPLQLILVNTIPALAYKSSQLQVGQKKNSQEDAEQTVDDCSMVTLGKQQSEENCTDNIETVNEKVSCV

- IC50 [1]: > 1 µM
- IC50 [2]: 6 µM
- IC50 [3]: 1.98 µM
- IC50 [4]: 3.9 µM
- IC50 [5]: 0.252 µM
- IC50 [6]: 1.51 µM
Compound: N#Cc1ccc2[nH]cc(CCCCN3CCN(c4ccc5oc(C(N)=O)cc5c4)CC3)c2c1 [VILAZODONE]
